Source: publication PMC10411625, “Rationally designed stapled peptides allosterically inhibit PTBP1–RNA-binding” (Chemical Science, 2023)

Assays:
[1] = Helicity by circular dichroism spectroscopy; type: physicochemical; conditions: 50 µM peptide, 20 mM sodium phosphate pH 8.0, 10 mM NaF, 20 °C, triplicates, JASCO multivariate secondary structure analysis
Text: For the initial design we used the i, i + 4 strategy where two (S)-pentenyl alanines (S5) were introduced in positions with three other amino acids in between. We picked three different amino acid pairs to replace with the S5 amino acids based on their orientation as observed in the NMR structures (P-2, P-3 and P-4, Fig. 2B and C).[25] To prevent the staple from disturbing the interaction between the ligand and the protein we chose positions facing away from the binding site forming the pairs Ala145/Ala149, Gln148/Gln152, and Ala149/Ala153. The three peptides were synthesized on Rink amide resin and the linear peptides were treated with a Grubbs catalyst to connect the S5 residues. To avoid a mixture of E/Z-diastereomers we reduced the alkene in the linker of the staple using a solution phase hydrogenation protocol.[43] The linear equivalent P-1 was synthesized for comparison but had to be extended on the C-terminus with an arginine residue to improve its solubility. The C-terminus is away from the binding surface and this modification was therefore not expected to have an impact on the binding affinity. The peptides were tested in a competitive fluorescence polarization assay using the RRM12 construct and RNA-2 (Fig. 2C and S2 ^†). […] As the staple is expected to stabilize the α-helical conformation we used circular dichroism (CD) spectroscopy to evaluate the helicity of the peptides. […] It is possible that although P-4 was more helical than P-3, the replacement of Gln148 with the hydrophobic linker disturbed the interaction since the side chain amide potentially interacts with the RRM1 surface. […]
(§1) performed in FP bufferPTBP1. […]
(§2) serially diluted in the same buffer. […]
(§3) a final concentration of 10 nM probe. […]
(§4) the settings mentioned previously.
(§5) Fluorescence polarization assay with SRSF1
(§6) Fluorescence polarization was
(§7) Fluorescence polarization assay with hnRNPA2/B1
(§8) For the competitive assay 10 nM
(§9) Microscale thermophoresis […]
(§10) afterwards serially diluted into FP buffer.
(§11) The data was evaluated at […]
(§12) experiments were performed in duplicates.
(§13) Circular Dichroism Spectroscopy […]

hnRNP A2/B1 = biological target: T1, hnRNP A2/B1 (Homo sapiens, UniProt P22626); test: Competitive fluorescence polarization assay, hnRNP A2/B1 and RNA-AB; type: binding; conditions: Fig. 3C; competitive FP, 10 nM hnRNPA2/B1, 1 nM Cy5-labeled RNA-AB, 25 mM HEPES pH 8.0; read-out: P-6 Ki, construct hnRNP A2/B1
T1 construct: (1-251); made in house; host or cells: E. coli BL21 (DE3) RIPL
T1 sequence (P22626 1-251, species assumed): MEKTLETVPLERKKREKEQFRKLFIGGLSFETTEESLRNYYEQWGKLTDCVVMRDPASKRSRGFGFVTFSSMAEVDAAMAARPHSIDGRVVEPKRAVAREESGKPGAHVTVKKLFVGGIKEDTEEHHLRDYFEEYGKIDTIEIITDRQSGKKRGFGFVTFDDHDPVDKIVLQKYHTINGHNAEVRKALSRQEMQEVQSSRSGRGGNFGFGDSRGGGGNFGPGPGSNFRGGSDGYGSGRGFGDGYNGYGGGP
Text: (§14) The RRM domain is the most commonly occurring RNA-binding domain in the proteome making it challenging to find selective inhibitors.[23,46] Although various ligands have been described, their selectivity is rarely investigated, with an exception for the Musashi-1 inhibitor Ro 08-2750.[47–58] To investigate whether P-6 has an effect on the RNA-binding of other dual RRM containing proteins, we evaluated its inhibitory potency against another hnRNP protein (hnRNP A2/B1) as well as a splicing factor from the SR-protein class (SRSF1).[1] We evaluated P-6 in competitive fluorescence polarization assays using previously described RNAs recognized by these proteins.[59] […]
as §1, §2, §3, §4, §5, §6, §7, §8, §9, §10, §11, §12, §13
(§15) secondary structure analysis with a reference data set. For experiments with PTBP1 constructs the […]

SRSF1 = biological target: T2, SRSF1 (Homo sapiens, UniProt Q07955); test: Competitive fluorescence polarization assay, SRSF1 and RNA-S; type: binding; conditions: Fig. 3C; competitive FP, 400 nM SRSF1, 1 nM Cy5-labeled RNA-S, pH 7.0; read-out: P-6 Ki, construct SRSF1
T2 construct: SRSF1-RRM12 (1-195); His tag (cleaved yes); made in house; host or cells: E. coli BL21 (DE3)
T2 sequence (Q07955 1-195, species assumed): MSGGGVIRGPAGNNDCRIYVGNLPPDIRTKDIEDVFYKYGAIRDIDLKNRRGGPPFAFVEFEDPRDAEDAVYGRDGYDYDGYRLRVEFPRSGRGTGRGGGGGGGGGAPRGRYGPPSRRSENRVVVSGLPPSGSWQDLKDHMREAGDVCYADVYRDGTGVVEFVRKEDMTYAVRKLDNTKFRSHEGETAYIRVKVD
Text: as §14, §1, §2, §3, §4, §5, §6, §7, §8, §9, §10, §11, §12, §13, §15

Row | SMILES | Helicity by CD spectroscopy [1] [%] | Ki (hnRNP A2/B1) [µM] | Ki (SRSF1) [µM]
1 | CC(=O)N[C@@H](CC(N)=O)C(=O)N[C@@H](CCC(N)=O)C(=O)N[C@@]1(C)CCCCCCCC[C@@](C)(C(=O)N[C@@H](C)C(=O)N[C@@H](CC(C)C)C(=O)N[C@@H](CCC(N)=O)C(=O)N[C@@H](C)C(=O)N[C@H](C(=O)N[C@@H](CC(N)=O)C(N)=O)C(C)C)NC(=O)[C@H](CCC(N)=O)NC(=O)[C@H](C)NC(=O)[C@H](CCCNC(=N)N)NC1=O [Peptide P-2] | 92.3 | – | –
2 | CC(=O)N[C@@H](CC(N)=O)C(=O)N[C@@H](CCC(N)=O)C(=O)N[C@@]1(C)CCCC=CCCCC2(CCCC=CCCC[C@](C)(C(=O)N[C@H](C(=O)N[C@@H](CC(N)=O)C(N)=O)C(C)C)NC(=O)[C@H](CCC(N)=O)NC(=O)[C@H](CC(C)C)NC(=O)[C@H](C)NC2=O)NC(=O)[C@H](CCC(N)=O)NC(=O)[C@H](C)NC(=O)[C@H](CCCNC(=N)N)NC1=O (stereo partly drawn) [Peptide P-6] | – | > 1000 | > 1000
